{"source": "ChEMBL document CHEMBL1201862", "about": "“PubChem BioAssay data set” (2004)", "key": {"[1]": {"target": "T1, Mannose-6-phosphate isomerase (Homo sapiens, UniProt P34949)", "T1 sequence (P34949 whole entry)": "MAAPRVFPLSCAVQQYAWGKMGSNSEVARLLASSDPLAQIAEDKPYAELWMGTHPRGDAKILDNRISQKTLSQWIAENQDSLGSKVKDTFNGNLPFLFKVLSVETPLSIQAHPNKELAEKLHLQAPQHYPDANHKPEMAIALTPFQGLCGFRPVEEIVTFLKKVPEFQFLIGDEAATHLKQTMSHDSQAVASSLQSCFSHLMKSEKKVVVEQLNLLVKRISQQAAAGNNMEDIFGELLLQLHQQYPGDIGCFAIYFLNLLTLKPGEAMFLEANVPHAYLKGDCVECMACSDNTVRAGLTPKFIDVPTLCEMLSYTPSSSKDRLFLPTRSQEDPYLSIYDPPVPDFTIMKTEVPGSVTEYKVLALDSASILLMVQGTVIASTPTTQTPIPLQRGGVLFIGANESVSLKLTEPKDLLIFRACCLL", "experiment": "human PMI inhibitors, high substrate, primary screen, biochemical, fluorescence intensity, high mannose 6-phosphate (AID 1220)"}, "Nonstructural protein 1": {"target": "Nonstructural protein 1 (Influenza A virus, UniProt Q194T2)", "sequence (Q194T2 whole entry)": "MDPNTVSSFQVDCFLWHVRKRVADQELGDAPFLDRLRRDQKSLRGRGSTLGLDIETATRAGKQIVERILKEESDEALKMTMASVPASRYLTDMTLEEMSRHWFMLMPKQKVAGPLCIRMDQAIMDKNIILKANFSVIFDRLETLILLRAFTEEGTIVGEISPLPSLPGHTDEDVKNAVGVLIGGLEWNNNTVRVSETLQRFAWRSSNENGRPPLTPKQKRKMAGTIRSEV", "assay_type": "functional, Influenza A virus (A/California/07/2009(H1N1))"}, "Cytochrome P450 3A4": {"target": "Cytochrome P450 3A4 (Homo sapiens, UniProt P08684)", "sequence (P08684 whole entry)": "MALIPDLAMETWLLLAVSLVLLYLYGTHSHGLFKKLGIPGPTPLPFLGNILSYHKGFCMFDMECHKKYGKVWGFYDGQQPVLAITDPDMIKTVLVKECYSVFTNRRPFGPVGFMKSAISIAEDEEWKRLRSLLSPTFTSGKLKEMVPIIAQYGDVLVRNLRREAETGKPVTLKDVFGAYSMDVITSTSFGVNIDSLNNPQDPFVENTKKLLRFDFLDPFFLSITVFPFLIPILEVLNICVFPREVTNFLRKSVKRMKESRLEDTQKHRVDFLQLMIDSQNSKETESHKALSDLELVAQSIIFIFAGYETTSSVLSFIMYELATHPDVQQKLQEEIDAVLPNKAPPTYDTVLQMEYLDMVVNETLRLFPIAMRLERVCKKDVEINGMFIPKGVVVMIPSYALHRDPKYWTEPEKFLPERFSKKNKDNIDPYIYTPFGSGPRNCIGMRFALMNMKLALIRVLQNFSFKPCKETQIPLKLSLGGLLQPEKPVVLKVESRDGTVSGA"}, "cells [2]": {"experiment": "cells", "assay_type": "functional, cell-based"}, "cells [3]": {"experiment": "cells", "assay_type": "functional, cell-based", "remark": "listed apart in the source"}, "[4]": {"target": "T2, Short transient receptor potential channel 4 (Mus musculus, UniProt Q9QUQ5)", "T2 sequence (Q9QUQ5 whole entry)": "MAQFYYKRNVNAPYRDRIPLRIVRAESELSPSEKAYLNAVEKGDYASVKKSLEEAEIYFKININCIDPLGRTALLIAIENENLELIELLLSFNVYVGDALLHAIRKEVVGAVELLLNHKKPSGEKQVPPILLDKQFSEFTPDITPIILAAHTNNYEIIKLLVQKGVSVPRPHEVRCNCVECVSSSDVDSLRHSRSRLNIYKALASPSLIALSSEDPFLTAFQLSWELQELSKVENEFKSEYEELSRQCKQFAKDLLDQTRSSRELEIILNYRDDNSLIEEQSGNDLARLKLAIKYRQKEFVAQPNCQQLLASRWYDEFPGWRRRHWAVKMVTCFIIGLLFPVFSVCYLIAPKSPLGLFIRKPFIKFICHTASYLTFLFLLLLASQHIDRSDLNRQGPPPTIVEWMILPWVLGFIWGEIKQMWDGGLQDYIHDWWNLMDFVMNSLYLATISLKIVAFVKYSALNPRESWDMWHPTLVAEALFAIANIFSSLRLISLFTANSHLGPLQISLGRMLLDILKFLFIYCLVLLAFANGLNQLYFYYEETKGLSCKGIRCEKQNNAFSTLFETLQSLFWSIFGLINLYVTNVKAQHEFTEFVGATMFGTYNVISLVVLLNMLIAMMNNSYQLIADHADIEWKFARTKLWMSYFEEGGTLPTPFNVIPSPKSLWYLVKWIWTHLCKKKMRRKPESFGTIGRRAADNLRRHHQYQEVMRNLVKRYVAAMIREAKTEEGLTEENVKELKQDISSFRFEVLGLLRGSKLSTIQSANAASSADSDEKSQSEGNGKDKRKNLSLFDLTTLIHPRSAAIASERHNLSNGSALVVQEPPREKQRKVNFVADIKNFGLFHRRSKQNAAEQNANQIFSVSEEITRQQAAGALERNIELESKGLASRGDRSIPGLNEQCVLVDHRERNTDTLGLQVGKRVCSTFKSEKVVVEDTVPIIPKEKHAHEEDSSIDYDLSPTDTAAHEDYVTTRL", "experiment": "mouse TRPC4 channel inhibitors, dose response, cell-based, HEK293 TRPC4/mu-opioid, Fluo-4 calcium (AID 434942)", "assay_type": "functional"}, "Coagulation factor XII": {"target": "T3, Coagulation factor XII (Homo sapiens, UniProt P00748)", "T3 sequence (P00748 whole entry)": "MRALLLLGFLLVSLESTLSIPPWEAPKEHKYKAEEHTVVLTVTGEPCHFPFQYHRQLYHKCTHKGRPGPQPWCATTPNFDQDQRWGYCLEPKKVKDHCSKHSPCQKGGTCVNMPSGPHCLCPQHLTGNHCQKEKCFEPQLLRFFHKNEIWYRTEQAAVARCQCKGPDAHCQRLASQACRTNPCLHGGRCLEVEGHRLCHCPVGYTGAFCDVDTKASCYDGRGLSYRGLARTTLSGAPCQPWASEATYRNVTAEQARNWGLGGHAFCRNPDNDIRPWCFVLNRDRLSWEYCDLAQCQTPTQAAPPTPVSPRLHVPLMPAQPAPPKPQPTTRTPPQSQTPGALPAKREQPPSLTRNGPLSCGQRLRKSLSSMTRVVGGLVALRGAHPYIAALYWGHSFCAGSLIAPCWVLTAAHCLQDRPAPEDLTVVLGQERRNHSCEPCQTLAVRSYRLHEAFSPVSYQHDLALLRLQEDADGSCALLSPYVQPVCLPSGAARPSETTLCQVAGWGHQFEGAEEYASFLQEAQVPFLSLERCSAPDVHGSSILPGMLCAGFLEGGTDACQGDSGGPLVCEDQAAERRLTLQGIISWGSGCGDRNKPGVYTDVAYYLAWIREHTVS", "assay_type": "functional"}, "Prothrombin": {"target": "Prothrombin (Homo sapiens, UniProt P00734)", "experiment": "Thrombin 1536 HTS Dose Response Confirmation. [Related pubchem assays: 1046 (Thrombin 1536 HTS; hits were confirmed in this assay)]", "assay_type": "functional"}, "[5]": {"target": "T4, Calpain-2 catalytic subunit (Sus scrofa, UniProt P43367)", "T4 sequence (P43367 whole entry)": "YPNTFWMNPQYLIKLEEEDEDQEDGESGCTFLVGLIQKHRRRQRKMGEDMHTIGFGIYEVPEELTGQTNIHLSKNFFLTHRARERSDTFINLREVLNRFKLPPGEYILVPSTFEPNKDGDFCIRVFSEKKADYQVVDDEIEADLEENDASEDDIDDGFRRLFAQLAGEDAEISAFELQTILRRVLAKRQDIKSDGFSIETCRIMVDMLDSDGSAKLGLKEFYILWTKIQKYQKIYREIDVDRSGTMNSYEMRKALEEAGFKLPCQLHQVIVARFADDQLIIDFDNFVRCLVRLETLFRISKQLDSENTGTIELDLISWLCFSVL", "experiment": "pig calpain II inhibitor potency, dose response, biochemical, fluorogenic peptide substrate (AID 1420)", "assay_type": "functional"}, "Large T antigen": {"target": "Large T antigen (Simian virus 40, UniProt P03070)", "sequence (P03070 whole entry)": "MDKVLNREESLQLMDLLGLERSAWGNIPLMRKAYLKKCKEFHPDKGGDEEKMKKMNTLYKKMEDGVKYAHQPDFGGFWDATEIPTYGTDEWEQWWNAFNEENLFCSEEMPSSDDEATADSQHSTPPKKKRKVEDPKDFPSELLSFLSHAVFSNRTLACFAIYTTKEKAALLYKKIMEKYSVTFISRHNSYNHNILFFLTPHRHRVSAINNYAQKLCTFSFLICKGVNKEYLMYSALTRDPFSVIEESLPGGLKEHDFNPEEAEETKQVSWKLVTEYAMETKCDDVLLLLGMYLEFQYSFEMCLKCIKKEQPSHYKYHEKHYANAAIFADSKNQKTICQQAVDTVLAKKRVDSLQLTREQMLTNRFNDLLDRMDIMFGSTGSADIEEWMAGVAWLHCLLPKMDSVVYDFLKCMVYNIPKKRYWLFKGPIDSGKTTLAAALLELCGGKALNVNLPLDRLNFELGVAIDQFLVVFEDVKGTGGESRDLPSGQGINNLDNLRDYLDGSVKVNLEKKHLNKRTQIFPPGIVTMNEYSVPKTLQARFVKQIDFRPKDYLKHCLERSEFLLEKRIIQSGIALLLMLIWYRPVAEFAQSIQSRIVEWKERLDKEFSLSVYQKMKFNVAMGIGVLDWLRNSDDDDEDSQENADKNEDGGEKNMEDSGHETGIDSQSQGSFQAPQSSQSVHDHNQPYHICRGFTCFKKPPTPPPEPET", "assay_type": "functional, Betapolyomavirus macacae"}}, "note": "Calls of active or inactive are those of the source.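 Wherever AC50 is given: CYP3A4 tested as one member of a cytochrome P450 panel screen.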"}
{"compound": "CC(C)(C)Nc1c([N+](=O)[O-])ccc2c1=NC1(CCCCC1)[N+]=2[O-]", "values": [{"measurement": "IC50", "setting": "[1]", "result": "> 50 µM (not active)"}, {"measurement": "IC50", "setting": "Nonstructural protein 1", "result": "18.1 µM (active)"}]}
{"compound": "N#Cc1ccc(C(=O)Nc2ccc(N3CCN(C(=O)c4ccco4)CC3)cc2)c(F)c1", "values": [{"measurement": "AC50", "setting": "Cytochrome P450 3A4", "result": "inconclusive"}]}
{"compound": "COc1cc2c(cc1OC)C(C)N(S(=O)(=O)c1ccc(Cl)nc1)CC2", "note": "(stereo unspecified)", "values": [{"measurement": "EC50", "setting": "cells [2]", "result": "> 350 µM (not active)"}, {"measurement": "EC50", "setting": "cells [3]", "result": "> 350 µM (not active)"}]}
{"compound": "CC(C)C(NC(=O)c1ccc(C(C)(C)C)cc1)C(=O)NCC(c1ccccc1)N(C)C", "note": "(stereo unspecified)", "values": [{"measurement": "EC50", "setting": "[4]", "result": "0.168 µM (active)"}]}
{"compound": "N=C(NOC(=O)c1ccc(Cl)c([N+](=O)[O-])c1)c1ccccn1", "values": [{"measurement": "IC50", "setting": "Coagulation factor XII", "result": "> 50 µM (inactive)"}]}
{"compound": "O=C(COC(=O)c1ccc(O)cc1)NCCCc1ccccc1", "values": [{"measurement": "IC50", "setting": "Prothrombin", "result": "> 50 µM (not active)"}, {"measurement": "IC50", "setting": "Coagulation factor XII", "result": "> 50 µM (inactive)"}]}
{"compound": "C/C(N)=C(/C#N)C(=O)COC(=O)CC12CC3CC(CC(C3)C1)C2", "values": [{"measurement": "IC50", "setting": "[5]", "result": "12 µM (not active)"}, {"measurement": "EC50", "setting": "[4]", "result": "1.5 µM (active)"}]}
{"compound": "COc1ccc(NC2CCCN(C(=O)c3cccc(C(F)(F)F)c3)C2)cc1OC", "note": "(stereo unspecified)", "values": [{"measurement": "IC50", "setting": "Large T antigen", "result": "44.1 µM (active)"}]}
{"compound": "O=C1CCCC2=C1C(Cc1ccccc1)C1=C(CCCC1=O)O2", "values": [{"measurement": "EC50", "setting": "cells [2]", "result": "> 350 µM (not active)"}, {"measurement": "EC50", "setting": "cells [3]", "result": "> 350 µM (not active)"}]}
{"compound": "Cc1onc(-c2c(F)cccc2Cl)c1C(=O)N(C)CC(=O)Nc1cccc(F)c1", "values": [{"measurement": "EC50", "setting": "[4]", "result": "2.11 µM (active)"}]}
{"compound": "CCCc1nnc(NC(=O)CCC(=O)N2CCN(c3ccccn3)CC2)s1", "values": [{"measurement": "AC50", "setting": "Cytochrome P450 3A4", "result": "inconclusive"}]}
